# Source: paper PMC10714399, “Open Source Antibiotics: Simple Diarylimidazoles Are Potent against Methicillin-Resistant Staphylococcus aureus” (ACS Infectious Diseases, 2023)
# Where two headings read alike, the source gives them in different places.
# Legend:
# [1] = tested on: Staphylococcus aureus NCTC 13373 (mecA-positive; methicillin-resistant); assay: In vitro antibacterial activity, MIC (UCL School of Pharmacy assay), MRSA; format: cell-based; conditions: Staphylococcus aureus, UCL; read-out: MRSA MIC (UCL)
# Summary of the method: (§1)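 Two-fold dilution MIC testing, 32–0.03 μg/mL, isosensitest broth medium. Cultures standardized by absorbance at 600 nm (0.1, ~1 × 10^8 CFU/mL) before 1:100 dilution; vancomycin included for quality control.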
# [2] = tested on: Enterococcus faecalis ATCC 51299 (vanA-positive; vancomycin-resistant); assay: In vitro antibacterial activity, MIC (UCL), VRE; format: cell-based; conditions: read-out: VRE MIC (UCL)
# Summary of the method: as §1
# Aqueous solubility = format: physicochemical; conditions: NEU
# LogD7.4 (Chrom Log D) = format: physicochemical; conditions: chromatographic system (Chrom Log D); pH 7.4, NEU; read-out: LogD 7.4 (NEU)
# Source text: To guide our initial SAR exploration work, we obtained liver microsomal intrinsic clearance data for 5 of the 18 compounds assayed by CO-ADD (Supporting Information - CDCO Report and Supporting Information - Biology). We then acquired intrinsic clearance (CLint), plasma protein binding (PPB), and solubility data on further compounds throughout the SAR campaign (Supporting Information - Biology, Tables S3 and S4). […] The more polar compounds (lower LogD) had reduced PPB and were more metabolically stable.
# Table S4. ADME and Pharmacokinetics: compounds only appearing in the Supplementary […]
# MRSA Aqueous HLM CLint Rat Hep CLint
# Cmpd MIC Solubility Human PPB (%) (µL/min/mg (µL/min/10x6 LogD7.4
# (µg/mL) (µM) protein) cells)
# (§2) ADME and toxicity for compounds were measured according to procedures outlined in the manuscript submitted in parallel to this one;2 other procedures were used for those compounds analysed by Monash University (in vitro ADME) or UCL (toxicity), both described in the main
# [3] = Human liver microsome intrinsic clearance; format: in vitro ADME; conditions: human liver microsomes, NEU
# [4] = Rat hepatocyte intrinsic clearance; format: in vitro ADME; conditions: rat hepatocytes, NEU
# [5] = tested on: MRC-5SV2 (human lung fibroblast cell line); assay: Toxicity against MRC-5SV2; format: cell-based; conditions: MRC5 cells
# Method: as §2
# [6] = tested on: PMM (primary mouse macrophages); assay: Toxicity against PMM; format: cell-based; conditions: PMM
# Method: as §2
# U2OS = assay: Toxicity against U2OS; format: cell-based; conditions: U2OS cells
# Source text: Supplement id3c00286_si_002.xlsx, sheet "Series 2 Data" | column: U2OS TC50 (uM)
# THP1 = assay: Toxicity against THP1; format: cell-based; conditions: THP1 cells
# Source text: Supplement id3c00286_si_002.xlsx, sheet "Series 2 Data" | column: THP1 TC50 (uM)
# [7] = tested on: Staphylococcus aureus ATCC 43300 MRSA; assay: CO-ADD antibacterial assay (growth inhibition, MIC), MRSA; format: cell-based; conditions: read-out: MRSA MIC (CO-ADD)
# Method: Hit Confirmation of active compounds by whole cell growth inhibition assays was conducted as an 8-point dose response to determine the Minimum Inhibitory Concentration (MIC), in duplicate (n=2). The inhibition of growth is measured against those microorganisms that […]
# Included in the Hit Confirmation were 5 bacteria: Escherichia coli, Klebsiella pneumoniae, Acinetobacter baumannii, Pseudomonas aeruginosa and Staphylococcus aureus, and 2 fungi Candida albicans and Cryptococcus neoformans. […]
# Assay Parameters Bacteria Fungi HEK293 Haemolysis […]
# Duplicate (n=2) Duplicate (n=2) Duplicate (n=2) Duplicate (n=2)
# QC Control MIC: Control MIC: Control CC50: Control HC10:
# Non-Binding Non-Binding TC, 384-well Polypropylene
# Plates Surface (NBS), Surface (NBS), black wall/clear 384-well and 384-well plate 384-well plate bottom polystyrene 384-
# Cation-adjusted Yeast Nitrogen DMEM
# Media Mueller Hinton Base supplemented 0.9% NaCl
# Hit Confirmation outcomes are detailed in individual Project reports, personalised for each Project Submission for each CO-ADD user.
# Please see your data sheet with file extension P0XXX_HC_data.xlsx, for example CO-ADD Project P0100, P0100_HC_data.xlsx
# Study: HC_data ID: HC-Procedures & Materials
# Date: Last updated June 2018 Confidential Page 3 of 11
# (§3) (1 picture or pasted object on this page, not shown here)
# Samples were provided by the collaborator and stored frozen at -20 °C. Samples were prepared in DMSO and water to a final testing concentration of 32 µg/mL or 20 µM (unless otherwise indicated in the data sheet) and serially diluted 1:2 fold for 8 times. Each sample concentration was prepared in 384-well plates, non-binding surface plate (NBS; Corning 3640) for each bacterial/fungal strain, tissue-culture treated (TC-treated; Corning 3712/3764) black for mammalian cell types and polypropylene 384-well (PP; Corning 3657) for haemolysis assays, all in duplicate (n=2), and keeping the final DMSO concentration to a maximum of 0.5%. All the sample preparation was done using liquid handling robots. […]
# detailed in the Data sheet for the individual Project.
# All bacteria were cultured in Cation-adjusted Mueller Hinton broth (CAMHB) at 37 °C overnight. A sample of each culture was then diluted 40-fold in fresh broth and incubated at 37 °C for 1.5-3 h. The resultant mid-log phase cultures were diluted (CFU/mL measured by OD600), then added to each well of the compound containing plates, giving a cell density of 5×10^5 CFU/mL and a total volume of 50 µL. All the plates were covered and incubated at 37 °C for 18 h without shaking.
# Inhibition of bacterial growth was determined measuring absorbance at 600 nm (OD600), using a Tecan M1000 Pro monochromator plate reader. The percentage of growth inhibition was calculated for each well, using the negative control (media only) and positive control (bacteria without inhibitors) on the same plate as references.
# The percentage of growth inhibition was calculated for each well, using the negative control (media only) and positive control (bacteria without inhibitors) on the same plate. The MIC […]
# by an inhibition ≥ 80%. In addition, the maximal percentage of growth inhibition is reported as DMax, indicating any compounds with partial activity.
# Date: Last updated June 2018 Confidential Page 5 of 11
# Material Code Brand/Supplier Cat No.
# Compound preparation plate, Polypropylene PP Corning 3364
# Assay Plates – Antimicrobial
# Non-binding surface NBS 384w Corning 3640
# Assay Plates – Cytotoxicity
# Tissue culture treated Black/Clear bottom 384w Corning 3712
# Assay Plates - Haemolysis PP-Haem Corning 3657 […]
# Growth media - bacteria CAMHB Bacto Laboratories 212322
# Culture agar - fungi YPD Becton Dickinson 242720
# Growth media - fungi YNB Becton Dickinson 233520
# Resazurin Sigma-Aldrich R7017
# Dulbecco's Modified Eagle Medium DMEM Life Technologies 11995-073
# Foetal Bovine Serum FBS Bovogen FFBS-500
# 0.9% NaCl Saline Baxter AHF7124
# Sample Name Sample ID MW Conc. Solvent Source […]
# [8] = Kinetic solubility estimation using nephelometry (Monash); format: physicochemical; conditions: for solubility kinetic at 30 min: kinetic from dmso stock; for Sol 2.0: approx pH 2.0
# Method: Compound in DMSO was spiked into either pH 6.5 phosphate buffer or 0.01 M HCl (approximately pH 2.0) with the final DMSO concentration being 1%. […]
# b) Kinetic Solubility Estimation using Nephelometry (SolpH)
# Compound in DMSO was spiked into either pH 6.5 phosphate buffer or 0.01 M HCl (approx pH 2.0) with the final
# DMSO concentration being 1%. After 30 minutes had elapsed, samples were then analysed via Nephelometry to
# determine a solubility range. See Bevan and Lloyd (2000) Anal Chem, 72:1781-1787. […]
# (§4) In Vitro Intrinsic Clearance […]
# (§5) Experimental results are tabulated on the following page(s).
# as §3
# [9] = Distribution coefficient estimation using chromatography, gLogD (Monash); format: physicochemical
# Source text: Partition coefficient values (LogD) of the test compounds were estimated at pH 7.4 by the correlation of their chromatographic retention properties against the characteristics of a series of standard compounds with known partition coefficient values. The method employed is a gradient HPLC-based derivation of the method developed by Lombardo.[42] […]
# c) Distribution Coefficient Estimation using Chromatography (gLogDpH)
# Partition coefficient values (LogD) of the test compounds were estimated at pH 7.4 by correlation of their
# chromatographic retention properties against the characteristics of a series of standard compounds with known
# partition coefficient values. […]
# as §4, §5, §3
# [10] = In vitro metabolic stability, human liver microsomes (Monash); format: in vitro ADME; conditions: for CLint, in vitro / T1/2: NADPH
# Method: (§6) The metabolic stability assay was performed by incubating each test compound with a suspension of liver microsomes (0.4 mg/mL protein, 1 μM substrate, 37 °C). Microsomes were purchased from XenoTech. The metabolic reaction was initiated by the addition of an NADPH-regenerating system and quenched at various time points over a 60 min incubation by the addition of acetonitrile containing metolazone as an internal standard. Control samples (containing no NADPH) were included (quenched at 2, 30, and 60 min) to monitor for potential degradation in the absence of cofactor. […]
# (§7) d) In Vitro Metabolic Stability
# (§8) The metabolic stability assay was performed by incubating each test compound with a suspension of liver
# (§9) microsomes (0.4 mg/mL, 37°C). The metabolic reaction was initiated by the addition of an NADPH-regenerating
# (§10) system and quenched at various time points over a 60 minute incubation by the addition of acetonitrile containing
# (§11) metolazone as internal standard. Control samples (containing no NADPH) were included (quenched at 2, 30 and 60
# (§12) minutes) to monitor for potential degradation in the absence of cofactor.
# (§13) The human liver microsomes used in this experiment were supplied by XenoTech, lot # 1710084.The rat liver
# (§14) microsomes used in this experiment were supplied by XenoTech, lot # 1610290. Microsomal incubations were
# (§15) performed at a substrate concentration of 1 µM.
# (§16) Data analysis and interpretation:
# (§17) Substrate depletion as a function of time was analysed as described by Obach (1999) Drug Metab. Dispos., 27:1350-
# (§18) 1359. Intrinsic clearance (CLint) values were classified at the limits of low and high clearance bands based on a
# (§19) rearrangement of the well stirred model of hepatic elimination. It should be noted that the potential impact of
# (§20) compound binding (either in microsomes or in blood) on the relationship between in vitro intrinsic clearance and
# (§21) hepatic clearance in vivo has not been accounted for in these studies.
# (§22) In Vitro Intrinsic Clearance
# (§23) Species (µL/min/mg protein)
# (§24) Low Clearance High Clearance
# as §5, §3
# [11] = In vitro metabolic stability, rat liver microsomes (Monash); format: in vitro ADME; conditions: for CLint, in vitro / T1/2: NADPH
# Method: as §6, §7, §8, §9, §10, §11, §12, §13, §14, §15, §16, §17, §18, §19, §20, §21, §22, §23, §24, §5, §3
# [12] = Mouse liver microsome (MLM) metabolic stability (UNC); format: in vitro ADME
# Source text: Supplement id3c00286_si_002.xlsx, sheet "Series 2 Data" | column: MLM Clint (mL/min/kg) (UNC); MLM t1/2 (min) (UNC); MLM E (UNC)
compound,measurement,setting,value
Fc1ccc(-c2c(-c3ccccn3)nc3ccccn23)cc1 [OSA_000859],MIC,[1],32 µg/mL
same,MIC,[2],> 32 µg/mL
same,Aqueous Solubility (NEU),Aqueous solubility,178 µM
same,chromatographic logD,LogD7.4 (Chrom Log D),3
same,HLM CLint (NEU),[3],168 uL/min/mg protein
same,Rat Hep CLint (NEU),[4],49.8 uL/min/10x6 cells
same,MRC5 TC50,[5],10.3 µM
same,PMM TC50,[6],32 µM
same,U2OS TC50,U2OS,4.54 µM
same,THP1 TC50,THP1,17 µM
c1ccc(-c2nc3n(c2-c2ccc4c(c2)OCO4)CCS3)nc1 [OSA_000813],MIC,[7],32 µg/mL
same,solubility kinetic at 30 min,"[8]; 0.01 M HCl, simulated gastric fluid, pH 2.0, read-out: Sol (pH 2.0) (Monash)",25 to 50 µg/mL
same,solubility kinetic at 30 min,"[8]; pH 6.5 phosphate buffer, pH 6.5, aqueous buffer, read-out: Sol (pH 6.5) (Monash)",12.5 to 25 µg/mL
same,chromatographic logD,"[9]; gradient HPLC retention against standard compounds, pH 7.4",1.6
same,microsomal CLint at 1 µM,"[10]; Monash, read-out: HLM Clint (Monash)",37 µL/min/mg
same,half-life at 1 µM,"[10]; Monash, read-out: HLM t1/2 (Monash)",47 min
same,microsomal CLint at 1 µM,"[11]; Monash, read-out: RLM Clint (Monash)",74 µL/min/mg
same,half-life at 1 µM,"[11]; Monash, read-out: RLM t1/2 (Monash)",23 min
same,MLM E (UNC),[12]; mouse liver microsomes,0.873
same,CLint scaled,"[12]; mouse, liver microsomes",619 mL/min/kg
same,half-life,"[12]; mouse, liver microsomes, read-out: MLM t1/2 (UNC)",9.08 min
c1ccc(-c2nc3n(c2-c2ccc4occc4c2)CCC3)nc1 [UNC-ALM-DAI-27],Sol 2.0,[8]; 0.01 M HCl,> 100 µg/mL
same,Sol 6.5,[8]; pH 6.5 phosphate buffer,25 to 50 µg/mL
same,gLogD at pH 7.4,[9],1.9
same,"CLint, in vitro",[10],51 µL/min/mg protein
same,T1/2,[10],34 min
same,"CLint, in vitro",[11],72 µL/min/mg protein
same,T1/2,[11],24 min
c1ccc(-c2nc3n(c2-c2ccc4c(c2)OCO4)CCS3)nc1 [UNC-ALM-DAI-16],Sol 2.0,[8]; 0.01 M HCl,25 to 50 µg/mL
same,Sol 6.5,[8]; pH 6.5 phosphate buffer,12.5 to 25 µg/mL
same,gLogD at pH 7.4,[9],1.6
same,"CLint, in vitro",[10],37 µL/min/mg protein
same,T1/2,[10],47 min
same,"CLint, in vitro",[11],74 µL/min/mg protein
same,T1/2,[11],23 min
